Measurements: patent US7838511B2, “Compositions and methods for treating, preventing and/or ameliorating cancers, the onset of cancers or the symptoms of cancers” (The Board of Regents of the University of Texas System, priority 2003, dated 2010)

Tests used:
[1] = test system: SW-480 colon cancer cell line; test: SW-480 colon cancer cell number; assay type: cell-based; details: mean ± SEM
Method: (§1) PC-NSAIDs were also tested on another type of cancer, a colon cancer cell line, SW-480.

[2] = test system: SW-480 colon cancer cell line; test: SW-480 colon cancer cell DNA synthesis; assay type: cell-based; details: mean ± SEM
Method: as §1

[3] = test system: MCF-7 breast cancer cells; test: MCF-7 DNA synthesis (thymidine incorporation into cellular DNA); assay type: cell-based; details: 5 mM, mean ± SEM
Method: Studies were further performed to determine the mechanism by which ASA and PC-ASA reduced cell number. MCF-7 cells were again grown in the absence or presence of ASA and PC-ASA, and cell proliferation was assessed by measurement of titriated thymidine incorporation into cellular DNA.

[4] = test system: MCF-7 breast cancer cells; test: MCF-7 breast cancer cell growth / cell number (MTT assay); assay type: cell-based; details: for Cell number (% control): mean ± SEM
Method: Using MCF-7 breast cancer cells grown in culture, a dose-response to aspirin (1.25 to 20 mM) was performed initially. After 48 hours of exposure to the various aspirin (acetyl salicylic acid, ASA) concentrations, mitochondrial 3-(4,5-dimethylthiazol-2-yl)-2,5-diphenyltetrazolium bromide (MTT) assays were performed. The MTT assay produces a measure of cell number and is used to monitor growth or inhibition of growth of the MCF-F breast cancer cells, i.e., measure the relative growth inhibitor activity of the compositions.
To test the relative growth inhibitor activity of phospholipid associated aspirin (PC-ASA) preparations, PC-ASA preparations were made having ASA concentrations that gave no more than 50% inhibition of growth (e.g., 2.5 and 5 mM) as shown in FIG. 2. In this example and in all subsequent examples, cell growth was assessed by measuring mitochondrial 3-(4,5-dimethylthiazol-2-yl)-2,5-diphenyltetrazolium bromide (MTT) activity. Those concentration of ASA were chosen so that any PC effects could be readily observed. After the preparation of the PC-ASA preparation, MCF-7 breast cancer cells were exposed for 48 hours to either ASA or a PC-ASA having the same ASA concentration.
MCF-7 breast cancer cells were grown in culture and exposed to aspirin (acetyl salicylic acid, ASA) and PC-ASA at equimolar concentrations. An assay was performed to estimate cell number.

[5] = test system: Leiomyosarcoma of the bladder; test: Bladder cancer (leiomyosarcoma) in a cat, ultrasonographic follow-up; assay type: in vivo, domestic cat; details: assessed by ultrasound
Method: To confirm that the PC-NSAIDs also have anti-cancer activity in vivo, a study has been performed on a domestic cat. As summarized in Table 3, the animal was diagnosed in December of 2003 with Leiomyosarcoma of the bladder, a particularly aggressive form of cancer.
The cat was treated surgically for resection of the tumor and was then placed on standard Vincristine chemotherapy for three weeks. […] Eventually, the tumor began to grow again and a treatment of lecithin combined with an NSAID, piroxicam, was begun. […] The cat is continuing to be treated with PC-piroxicam as of this filing.

MCF-7 cells = test: Lactate dehydrogenase (LDH) release (necrosis) of MCF-7 cells; assay type: cell-based; details: 0.6 mM, 5 hours; FIG. 4
Method: The growth inhibitor activity of the PC-ASA preparations on MCF-7 cells could be through increased apoptosis or necrosis or inhibition of cell proliferation. To differentiate between the first two possibilities, the effect of the PC-ASA preparations on release of the cytosolic enzyme lactate dehydrogenase (LDH) as a measure of necrosis were performed. For this study, MCF-7 cells were exposed to 2.5 and 5 mM ASA or PC-ASA preparations for 48 hours, as before. The media was collected and assayed for LDH activity (the assay is a kit available from Sigma Chemical Co., St. Louis, Mo.). To act as a positive control, some cells were exposed to a bile acid, 0.6 mM sodium deoxycholate (DOC), for 5 hours before LDH assay. […] Yet the ASA and PC-ASA preparations clearly reduce the number of MCF-7 cells at these concentrations. The most likely explanation for these findings is that the NSAIDs are inducing apoptosis rather than necrosis. This possibility is consistent with reports in the literature (see, e.g., Xiaojun L, Xie W, Reed D, Bradshaw W S, Simmons D L. Nonsteroidal antiinflammatory drugs cause apoptosis and induce cyclooxygenases in chicken embryo fibroblasts. Proc Natl Acad Sci USA 1995; 92:7961-7965.). Another possibility is that the PC-NSAID act by inhibiting cell proliferation.

Compound | Cell number (% control) ([1]; 1 mM) | DNA synthesis (% control) ([2]; 1 mM) | DNA synthesis (% control) [3] [% Control] | Cell number (% control) ([4]; MCF-7, 5 mM) [% Control] | Cell number (% control) ([1]; 5 mM) | DNA synthesis (% control) ([2]; 5 mM) | also measured
CC(C)Cc1ccc(C(C)C(=O)O)cc1 (stereo not drawn) [IBU, ibuprofen] | 81 ± 2 | 79 ± 1 | – | – | – | – | –
CC(=O)Oc1ccccc1C(=O)O [ASA, acetyl salicylic acid] | – | – | 85 ± 8 | 55 ± 3 | 68 ± 3 | 102 ± 4 | inhibition of growth ([4]; ASA 2.5 and 5 mM, MTT, FIG. 2): no more than 50%; ASA concentration with inhibitor effect on growth of the cells ([4]; MTT assay, 48 hours exposure, dose-response 1.25 to 20 mM, FIG. 2): ≥ 2.5 mM
CC[C@]1(O)C[C@H]2CN(CCc3c([nH]c4ccccc34)[C@@](C(=O)OC)(c3cc4c(cc3OC)N(C=O)[C@H]3[C@@](O)(C(=O)OC)[C@H](OC(C)=O)[C@]5(CC)C=CCN6CC[C@]43[C@@H]65)C2)C1 [Vincristine] | – | – | – | – | – | – | effect on tumor growth (in words) [5]: did not stop the remaining tumor growth
phosphatidylcholine [PC] | 106 ± 13 | 97 ± 5 | 41 ± 1 | 114 ± 3 | 106 ± 7 | 65 ± 4 | inhibiting the growth of the breast cancer cells (in words) ([4]; 2.5 and 5 mM, 48 hours, MTT, FIG. 3): did not adversely affect the growth of the cells; inhibiting the growth of the breast cancer cells (in words, Table 1) ([4]; MCF-7, 5 mM, equimolar): not effective at inhibiting the growth of the cells
sodium deoxycholate [DOC] | – | – | – | – | – | – | LDH release (necrosis), positive control (MCF-7 cells): caused the release of cellular LDH
